What was measured:
[1] = biological target: Metabotropic glutamate receptor 2 (Rattus norvegicus, UniProt P31421); assay: (§1) Negative allosteric modulation of rat mGlu2R expressed in HEK293 cells co-expressing Galpha15 assessed as decrease in glutamate-induced calcium mobilization preincubated for 2.3 mins followed by glutamate addition and measured after 1.7 mins by Fluo-4-AM dye based fluorescence assay; format: functional, cell-based
[2] = biological target: Metabotropic glutamate receptor 2 (Rattus norvegicus) (UniProt P31421); assay: as §1, with “mobilization at 30 uM” for “mobilization”, “assay relative to control” for “assay”; format: functional, cell-based
Sequence of Metabotropic glutamate receptor 2 (Rattus norvegicus) (P31421 19-872 limits assumed): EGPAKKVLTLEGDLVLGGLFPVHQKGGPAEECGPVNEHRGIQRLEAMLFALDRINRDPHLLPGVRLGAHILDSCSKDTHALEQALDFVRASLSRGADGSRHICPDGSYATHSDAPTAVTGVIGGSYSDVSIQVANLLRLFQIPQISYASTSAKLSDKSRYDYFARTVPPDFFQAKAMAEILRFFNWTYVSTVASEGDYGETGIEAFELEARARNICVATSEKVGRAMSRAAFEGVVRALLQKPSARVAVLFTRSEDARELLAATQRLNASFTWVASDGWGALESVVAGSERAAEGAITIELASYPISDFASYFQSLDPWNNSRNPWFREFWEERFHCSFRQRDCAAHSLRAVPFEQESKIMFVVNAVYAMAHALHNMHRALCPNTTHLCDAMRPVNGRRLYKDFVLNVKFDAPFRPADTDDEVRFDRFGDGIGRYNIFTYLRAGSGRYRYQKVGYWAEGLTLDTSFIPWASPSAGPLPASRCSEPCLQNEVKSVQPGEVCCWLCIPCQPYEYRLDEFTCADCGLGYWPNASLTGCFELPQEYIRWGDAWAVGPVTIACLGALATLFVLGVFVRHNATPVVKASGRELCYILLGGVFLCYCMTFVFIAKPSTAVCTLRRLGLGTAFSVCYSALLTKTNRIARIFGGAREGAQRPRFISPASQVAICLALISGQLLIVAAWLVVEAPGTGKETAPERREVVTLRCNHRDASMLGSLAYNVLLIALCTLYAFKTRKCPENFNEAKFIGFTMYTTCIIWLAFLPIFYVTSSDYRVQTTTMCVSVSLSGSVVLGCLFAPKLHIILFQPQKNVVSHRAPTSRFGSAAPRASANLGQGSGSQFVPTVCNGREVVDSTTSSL

[3] = Brain to plasma partition coefficient, Kp of the compound in Sprague-Dawley rat at 0.2 mg/kg, iv administered as cassette dose by LC-MS/MS analysis; format: ADME, organism-based; conditions: brain and plasma
[4] = Unbound brain to plasma ratio in Sprague-Dawley rat at 0.2 mg/kg, iv administered as cassette dose by LC-MS/MS analysis; format: ADME, organism-based; conditions: brain and plasma, read-out: K(p,uu,brain)
[5] = Fraction unbound in rat plasma after 4 hrs by equilibrium dialysis method; format: ADME, cell-free
[6] = Fraction unbound in human plasma after 4 hrs by equilibrium dialysis method; format: ADME, cell-free
[7] = Fraction unbound in rat brain; format: ADME, tissue-based
[8] = Plasma clearance in Sprague-Dawley rat at 0.2 mg/kg, iv administered as cassette dose by LC-MS/MS analysis; format: ADME, organism-based
[9] = Half life in Sprague-Dawley rat at 0.2 mg/kg, iv administered as cassette dose by LC-MS/MS analysis; format: ADME, organism-based; conditions: Sprague-Dawley, in vivo
[10] = Volume of distribution at steady state in Sprague-Dawley rat at 0.2 mg/kg, iv administered as cassette dose by LC-MS/MS analysis; format: ADME, organism-based; conditions: in vivo, read-out: Vdss
[11] = biological target: Metabotropic glutamate receptor 3 (Homo sapiens, UniProt Q14832); assay: Negative allosteric modulation of mGlu3R (unknown origin)
Sequence of Metabotropic glutamate receptor 3 (Q14832 whole entry): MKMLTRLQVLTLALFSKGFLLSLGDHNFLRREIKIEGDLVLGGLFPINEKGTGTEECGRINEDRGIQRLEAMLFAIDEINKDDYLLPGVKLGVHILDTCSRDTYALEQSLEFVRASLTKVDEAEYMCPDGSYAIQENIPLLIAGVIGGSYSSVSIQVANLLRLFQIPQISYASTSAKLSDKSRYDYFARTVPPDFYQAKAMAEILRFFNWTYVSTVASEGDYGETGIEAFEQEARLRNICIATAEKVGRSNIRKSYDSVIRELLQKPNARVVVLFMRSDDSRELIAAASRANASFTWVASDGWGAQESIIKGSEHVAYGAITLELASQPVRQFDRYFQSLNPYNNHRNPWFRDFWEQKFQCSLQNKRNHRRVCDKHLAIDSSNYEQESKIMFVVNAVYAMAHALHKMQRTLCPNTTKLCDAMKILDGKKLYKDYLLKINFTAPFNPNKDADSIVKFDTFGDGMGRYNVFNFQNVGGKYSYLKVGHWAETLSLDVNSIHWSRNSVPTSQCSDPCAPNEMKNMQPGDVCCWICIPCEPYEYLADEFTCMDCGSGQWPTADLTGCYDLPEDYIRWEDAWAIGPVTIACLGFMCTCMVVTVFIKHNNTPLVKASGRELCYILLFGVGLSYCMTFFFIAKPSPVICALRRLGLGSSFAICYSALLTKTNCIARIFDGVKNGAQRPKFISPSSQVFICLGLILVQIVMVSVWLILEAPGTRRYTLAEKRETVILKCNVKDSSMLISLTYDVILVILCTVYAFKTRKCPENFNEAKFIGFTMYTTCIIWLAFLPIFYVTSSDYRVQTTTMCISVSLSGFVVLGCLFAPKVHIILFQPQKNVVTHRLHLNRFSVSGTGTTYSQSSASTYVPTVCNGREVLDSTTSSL

[12] = Brain to plasma partition coefficient, Kp of the compound in rat; format: ADME; conditions: brain and plasma

Sequence of Metabotropic glutamate receptor 2 (P31421 whole entry): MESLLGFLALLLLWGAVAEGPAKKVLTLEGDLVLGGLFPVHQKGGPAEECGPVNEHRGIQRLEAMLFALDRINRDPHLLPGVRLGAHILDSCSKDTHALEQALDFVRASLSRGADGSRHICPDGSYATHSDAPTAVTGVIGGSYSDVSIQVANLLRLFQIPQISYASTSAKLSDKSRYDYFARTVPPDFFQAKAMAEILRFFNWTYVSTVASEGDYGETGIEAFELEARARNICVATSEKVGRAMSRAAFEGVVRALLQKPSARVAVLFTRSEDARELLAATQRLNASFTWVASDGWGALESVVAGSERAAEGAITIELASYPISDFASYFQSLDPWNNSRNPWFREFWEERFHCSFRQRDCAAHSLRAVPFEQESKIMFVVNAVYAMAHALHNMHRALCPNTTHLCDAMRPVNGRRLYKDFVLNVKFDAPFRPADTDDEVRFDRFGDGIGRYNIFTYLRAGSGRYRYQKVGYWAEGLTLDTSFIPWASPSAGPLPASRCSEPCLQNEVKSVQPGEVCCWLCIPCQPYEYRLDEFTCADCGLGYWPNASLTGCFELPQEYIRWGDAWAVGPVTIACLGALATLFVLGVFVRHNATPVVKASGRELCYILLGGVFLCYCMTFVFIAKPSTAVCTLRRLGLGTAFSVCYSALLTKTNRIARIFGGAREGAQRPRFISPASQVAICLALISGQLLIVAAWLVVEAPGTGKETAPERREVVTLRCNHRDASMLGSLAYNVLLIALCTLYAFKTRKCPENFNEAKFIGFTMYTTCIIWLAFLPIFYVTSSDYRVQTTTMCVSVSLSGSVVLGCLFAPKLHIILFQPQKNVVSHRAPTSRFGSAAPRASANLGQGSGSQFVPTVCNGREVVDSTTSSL

Structure (SMILES) | IC50 [1] [nM] | Emax [2] [%] | Kp [3] | Kp uu [4] | fraction unbound at 4 h [5] | fraction unbound at 4 h [6] | fraction unbound [7] | also measured
Cc1cc(OCc2cc3nc(C(N)=O)cc(-c4ccc(F)cc4)n3n2)ccn1 | > 10000 |  |  |  |  |  |  | 
Cc1ncccc1OCc1cc2nc(C(N)=O)cc(-c3ccc(F)cc3)c2s1 | 759 | 3.2 | > 2 | < 0.4 |  |  |  | 
COc1ccc(-c2cc(C(N)=O)nc3cc(COc4ccnc(C)c4)nn23)c(F)c1 | 288 | 35.4 | 2.5 to 2.7 | 0.4 to 0.6 | 0.03 to 0.12 | 0.03 to 0.12 | 0.003 to 0.009 | 
NC(=O)c1cc(-c2ccc(F)cc2)c2sc(COc3ccnc(C(F)(F)F)c3)cc2n1 | 1740 | 2.3 |  |  |  |  |  | 
NC(=O)c1cc(-c2ccc(F)cc2)c2sc(COc3ccc(F)cc3)cc2n1 | > 10000 |  |  |  |  |  |  | 
COc1ccc(-c2cc(C(N)=O)nc3cc(COc4cnc(C)nc4)sc23)cc1 | 316 | 2.6 | 3.41 | 0.49 | 0.02 | 0.01 | 0.003 | Emax ([2]; tested as the 2H-labelled form): 2.8%; clearance [8]: 389 mL/min/kg; half-life [9]: 14.3 min; Vd [10]: 6.49 L/kg
COc1ccc(-c2cc(C(N)=O)nc3cc(CN4CCOCC4)sc23)c(F)c1 | 1410 | 2.3 |  |  |  |  |  | 
NC(=O)c1cc(-c2ccc(F)cc2)c2sc(CN3CCSCC3)cc2n1 | 3630 | 2.4 |  |  |  |  |  | 
COc1ccc(-c2cc(C(N)=O)nc3cc(CN4CCOCC4)sc23)cc1 | 2510 | 2.6 |  |  |  |  |  | 
NC(=O)c1cc(-c2ccc(F)cc2)c2sc(CN3CCCC3)cc2n1 | 6610 | 4.1 |  |  |  |  |  | 
[11CH3]Oc1ccc(-c2cc(C(N)=O)nc3cc(CN4C(=O)CCC4=O)ccc23)c(F)c1 |  |  |  |  |  |  |  | IC50 [11]: > 30000 nM; Kp [12]: 0.3
NC(=O)c1cc(-c2ccc(F)cc2)c2sc(COc3ccc(Cl)nc3)cc2n1 | 871 | 29.3 | > 2 | < 0.4 |  |  |  | 
NC(=O)c1cc(-c2ccc(F)cc2)n2nc(COc3ccnc(Br)c3)cc2n1 | 224 | 19.7 | 2.5 to 2.7 | 0.4 to 0.6 | 0.03 to 0.12 | 0.03 to 0.12 | 0.003 to 0.009 | 
COc1ccc(-c2cc(C(N)=O)nc3cc(COc4ccc(C(F)(F)F)nc4)nn23)c(F)c1 | 347 | 4.2 | 2.5 to 2.7 | 0.4 to 0.6 | 0.03 to 0.12 | 0.03 to 0.12 | 0.003 to 0.009 | 
NC(=O)c1cc(-c2ccc(F)cc2)c2sc(COc3ccc(F)nc3)cc2n1 | 891 | 13.2 | > 2 | < 0.4 |  |  |  | 
Cc1ccc(OCc2cc3nc(C(N)=O)cc(-c4ccc(F)cc4)c3s2)cn1 | 676 | 2.2 | 7.99 | 0.2 | 0.02 | 0.05 | 0.003 | 
NC(=O)c1cc(-c2ccc(F)cc2)n2nc(CCc3cccnc3)cc2n1 | 1740 | 2.9 |  |  |  |  |  | 
NC(=O)c1cc(-c2ccc(F)cc2)c2sc(CN3CCC(F)(F)CC3)cc2n1 | 1050 | 2.2 |  |  |  |  |  | 
NC(=O)c1cc(-c2ccc(F)cc2)c2sc(CN3CCC3)cc2n1 | > 10000 |  |  |  |  |  |  | 
NC(=O)c1cc(-c2ccc(F)cc2)n2nc(CCc3ccnc(C(F)(F)F)c3)cc2n1 | 87 | 2.3 | 4.25 | 0.59 | 0.04 | 0.02 | 0.006 | 

From ChEMBL document CHEMBL4308859, “Discovery of Novel Central Nervous System Penetrant Metabotropic Glutamate Receptor Subtype 2 (mGlu2) Negative Allosteric Modulators (NAMs) Based on Functionalized Pyrazolo[1,5- a]pyrimidine-5-carboxamide and Thieno[3,2- b]pyridine-5-carboxamide Cores” (J Med Chem, 2018)
